Experimental data as given in PubChem BioAssay (NCI).
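Grown in 96-well plates, cells were treated for 48 hours with each compound at five concentrations. Insufficient inhibition: endpoint recorded as highest concentration tested. TGI marks complete inhibition of growth.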

Assays:
Test in all cases: NCI-60 cell line screen, 48 h
HCT-15 colon = test system: HCT-15 colon
BT-549 breast = test system: BT-549 breast
NCI-H23 lung = test system: NCI-H23 lung
A549 NSCLC = test system: A549 NSCLC
SK-MEL-2 melanoma = test system: SK-MEL-2 melanoma
OVCAR-3 ovarian = test system: OVCAR-3 ovarian
LOX IMVI melanoma = test system: LOX IMVI melanoma
COLO 205 colon = test system: COLO 205 colon
MDA-MB-435 = test system: MDA-MB-435
M14 melanoma = test system: M14 melanoma

Row | Compound | TGI (HCT-15 colon) [µM] | TGI (BT-549 breast) [µM] | TGI (NCI-H23 lung) [µM] | TGI (A549 NSCLC) [µM] | TGI (SK-MEL-2 melanoma) [µM] | TGI (OVCAR-3 ovarian) [µM] | TGI (LOX IMVI melanoma) [µM] | TGI (COLO 205 colon) [µM] | TGI (MDA-MB-435) [µM] | TGI (M14 melanoma) [µM]
1 | COc1ccc(C2SCC(=O)N2c2ccc(-c3ccc(-n4c(-c5ccccc5)nc5ccccc5c4=O)cc3)cc2)cc1 (stereo not given) | > 100 | > 100 | > 100 | > 100 | 86.7 | 46.8 | > 100 | > 100 | > 100 | > 100
2 | O=C(CSc1nc(=O)[nH]c2nc[nH]c12)Nc1ccccc1 | > 100 | > 100 | > 100 | > 100 | > 100 | > 100 | > 100 | > 100 | > 100 | > 100
3 | COC(=O)CC1(CNC(=O)OCc2ccccc2)OCCO1 | > 100 | > 100 | > 100 | > 100 | > 100 | > 100 | > 100 | > 100 | > 100 | > 100
4 | COc1cc(/C=C/C(C)=O)ccc1OP(=O)(O)O | > 100 | > 100 | > 100 | > 100 | > 100 | > 100 | > 100 | > 100 | > 100 | > 100
5 | Cc1nn(C(=O)c2ccc(Cl)cc2)c2c1C(c1ccc([N+](=O)[O-])cc1)SC(N)=N2 (stereo not given) | > 10 | > 10 | > 10 | > 10 | > 10 | > 10 | > 10 | > 10 | > 10 | > 10
6 | N#Cc1[nH]c(=O)n(-c2ccc(Cl)cc2)c1N | > 10 | > 10 | > 10 | > 10 | > 10 | > 10 | > 10 | > 10 | > 10 | > 10
7 | CN1CCC2(CC1)C(=O)N(N1CCCCCC1)C(=O)N2c1ccccc1 | > 100 | > 100 | > 100 | > 100 | > 100 | > 100 | > 100 | > 100 | > 100 | > 100
8 | CCCN1C(=O)CCC2=C1CCc1c2ccc(Cl)c1Cl | > 100 | > 100 | > 100 | > 100 | 41.6 | 86.7 | > 100 | > 100 | > 100 | > 100
9 | CC(=O)OCC1OC(n2c(N)c(C#N)c(-c3ccccc3)c(C#N)c2=S)C(OC(C)=O)C(OC(C)=O)C1OC(C)=O (stereo not given) | > 100 | > 100 | > 100 | > 100 | > 100 | > 100 | > 100 | > 100 | > 100 | > 100
10 | O=C(Oc1ccccc1)c1cc2cc(CCl)ccc2oc1=O | > 100 | > 100 | 42 | > 100 | 15.3 | > 100 | > 100 | 52.9 | > 100 | 67.1
11 | O=C1C2C=CC1C1C(=O)OC(=O)C21 (stereo not given) | > 100 | > 100 | > 100 | > 100 | > 100 | > 100 | > 100 | > 100 | > 100 | > 100
12 | CC(C)CCC1(O)O[C@H]2C[C@H]3[C@@H]4CCC5CC(=O)C=C[C@]5(C)[C@H]4CC[C@]3(C)[C@H]2[C@@H]1C (stereo not given in full) | 23.4 | 27.3 | 14.8 | 28.2 | 29.6 | 22.9 | 26.3 | 27.8 | 24.5 | 29.8
13 | O=C(O)CSCC(=O)Nc1ccc2cccc3c2c1CC3 | > 100 | > 100 | > 100 | > 100 | > 100 | > 100 | > 100 | > 100 | > 100 | > 100
14 | O=C1OC(c2ccc(O)c(Cl)c2)(c2ccc(O)c(Cl)c2)c2ccc(Br)c3cccc1c23 (tested in a mixture with another compound) | 44 | 18.6 | 34.8 | 38.9 | 42.1 | 21.8 | 40.3 | 23.1 | 34.3 | 49.6
15 | CCOc1ccccc1/C=C1\NC(=O)N(/C=C2\C(=O)Oc3ccccc3C2=O)C1=O | > 100 | > 100 | 95.5 | > 100 | > 100 | > 100 | > 100 | > 100 | > 100 | > 100
16 | CCSC1=N/C(=C\c2ccccc2O)C(Nc2ccc(C)cc2)=N1 | > 100 | > 100 | > 100 | > 100 | > 100 | 67.3 | > 100 | > 100 | > 100 | > 100

Row | Compound | TGI (HCT-15 colon) [µM] | TGI (BT-549 breast) [µM] | TGI (NCI-H23 lung) [µM] | TGI (A549 NSCLC) [µM] | TGI (SK-MEL-2 melanoma) [µM] | TGI (OVCAR-3 ovarian) [µM] | TGI (LOX IMVI melanoma) [µM] | TGI (COLO 205 colon) [µM] | TGI (MDA-MB-435) [µM] | TGI (M14 melanoma) [µM]
17 | O=C1c2ccccc2-c2nc(-c3cccnc3)cc3c2c1nc1ccccc13 | > 100 | > 100 | > 100 | > 100 | > 100 | > 100 | > 100 | > 100 | 34.7 | > 100
18 | COC(=O)C(CCC1C=CCC1)N=Cc1ccccc1 (stereo not given) | > 100 | > 100 | > 100 | > 100 | > 100 | > 100 | > 100 | > 100 | > 100 | > 100
19 | CC(=O)Oc1ccc2c(c1)c1c(=O)oc(N(C)C)nc1n2Cc1ccccc1 | > 100 | > 100 | > 100 | > 100 | > 100 | > 100 | > 100 | > 100 | > 100 | > 100
20 | CC(C)(C)c1ccc(CN2CCN(C(c3ccccc3)c3ccc(Cl)cc3)CC2)cc1 (stereo not given) | > 100 | > 100 | > 100 | > 100 | > 100 | > 100 | > 100 | > 100 | > 100 | > 100
21 | Cc1csc2nc(-c3ccc([N+](=O)[O-])cc3)c(/C=N/N=C(N)N)n12 | 1.68 | 0.211 | 3.2 | 3.2 | 2.86 | 5.7 | 3.63 | 2.96 | 3.16 | 3.41
22 | COc1cc(-c2[nH]ccc2Cl)oc1C1=C2N=C3C=C2C(C(C)C)C1CCCCCCCC3 (stereo not given) | 1.86 | 2.32 | 2.05 | 2.88 | 1.39 | 2.05 | 0.348 | 1.87 | 1.4 | 1.51
23 | CC(C)OP(=O)(CN(C)/C(F)=N\C(F)(F)F)OC(C)C | > 100 | > 100 | > 100 | > 100 | > 100 | > 100 | > 100 | > 100 | > 100 | > 100
24 | Cc1nc2c(o1)C(=O)c1ccccc1/C2=N/c1ccccn1 | 28.4 | 32.2 | 23.6 | > 100 | 43.6 | 49.3 | 39.9 | > 100 | 31.9 | 33.6
25 | CN1C(c2ccccc2)=CC(=O)C(O)=C(c2ccccc2)S1(=O)=O | > 100 | > 100 | > 100 | > 100 | > 100 | > 100 | > 100 | > 100 | > 100 | > 100
26 | C1COC(NC(C2CC2)C2CC2)=N1 | > 100 | > 100 | > 100 | > 100 | > 100 | > 100 | > 100 | > 100 | > 100 | > 100
27 | NC1CC(=O)c2csc(Br)c21 (stereo not given) | 41.2 | 26.5 | 30.8 | > 100 | 31.3 | 30.7 | 29 | > 51.4 | 32.9 | > 53.6
28 | Nc1nc(Cl)cc(NCC2(CO)CCC(Cc3ccccc3)C2)n1 (stereo not given) | > 100 | 78.7 | 72.3 | > 100 | > 75.7 | > 100 | 37.4 | 28.6 | 33.8 | 46.6
29 | O=P(O)(O)C(O)/C=C/c1ccccc1 (stereo not given) | > 100 | > 100 | > 100 | > 100 | > 100 | > 100 | > 100 | > 100 | > 100 | > 100
30 | CC(=O)Nc1ccc(CNc2cc(=O)[nH]c(=O)[nH]2)cc1 | > 100 | > 100 | > 100 | > 100 | > 100 | > 100 | > 100 | > 100 | > 100 | > 100
31 | OCCN(CCO)c1ccc2c(C(F)(F)F)cc(C(F)(F)F)nc2n1 | > 100 | > 100 | > 100 | > 100 | > 100 | > 100 | > 100 | > 100 | > 100 | > 100
